Measurements taken from BindingDB's records for doi:10.1016/s0960-894x(98)00583-6 (Novartis Horsham Research Center, 1999).

Molecular target: cGMP-inhibited 3',5'-cyclic phosphodiesterase 3A/3B (Homo sapiens, UniProt Q13370+Q14432)
Experiment: Inhibition of phosphodiesterase (PDE) 3

Sequence of cGMP-inhibited 3',5'-cyclic phosphodiesterase 3A/3B (Q14432 whole entry): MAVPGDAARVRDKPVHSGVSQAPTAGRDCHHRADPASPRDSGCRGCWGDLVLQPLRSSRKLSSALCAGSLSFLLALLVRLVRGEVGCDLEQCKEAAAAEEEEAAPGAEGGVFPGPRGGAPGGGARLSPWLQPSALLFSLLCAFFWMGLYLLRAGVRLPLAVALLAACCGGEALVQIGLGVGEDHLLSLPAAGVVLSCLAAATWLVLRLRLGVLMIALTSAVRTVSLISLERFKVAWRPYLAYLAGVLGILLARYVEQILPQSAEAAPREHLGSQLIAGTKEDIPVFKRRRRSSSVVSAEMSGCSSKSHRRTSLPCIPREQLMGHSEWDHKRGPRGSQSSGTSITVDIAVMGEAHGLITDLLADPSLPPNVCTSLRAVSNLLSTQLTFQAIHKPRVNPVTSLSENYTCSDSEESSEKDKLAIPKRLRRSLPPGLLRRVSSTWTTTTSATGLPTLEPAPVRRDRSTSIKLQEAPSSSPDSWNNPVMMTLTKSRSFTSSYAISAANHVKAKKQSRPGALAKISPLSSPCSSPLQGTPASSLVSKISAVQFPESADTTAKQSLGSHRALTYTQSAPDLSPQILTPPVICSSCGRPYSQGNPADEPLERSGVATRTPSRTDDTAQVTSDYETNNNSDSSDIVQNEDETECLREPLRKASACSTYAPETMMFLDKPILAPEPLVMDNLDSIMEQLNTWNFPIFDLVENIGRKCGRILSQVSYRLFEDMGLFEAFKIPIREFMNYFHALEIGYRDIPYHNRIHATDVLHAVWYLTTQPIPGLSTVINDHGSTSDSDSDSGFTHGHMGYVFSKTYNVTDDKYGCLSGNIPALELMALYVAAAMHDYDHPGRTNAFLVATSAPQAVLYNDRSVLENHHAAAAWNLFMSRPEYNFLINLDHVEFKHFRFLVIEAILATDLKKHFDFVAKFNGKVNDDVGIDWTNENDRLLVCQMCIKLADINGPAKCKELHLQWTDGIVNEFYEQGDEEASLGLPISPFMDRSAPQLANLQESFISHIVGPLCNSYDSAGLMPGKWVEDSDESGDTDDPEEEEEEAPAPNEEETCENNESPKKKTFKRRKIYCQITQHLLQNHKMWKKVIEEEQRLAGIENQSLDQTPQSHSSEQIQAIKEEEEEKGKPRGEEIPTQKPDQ
Sequence of cGMP-inhibited 3',5'-cyclic phosphodiesterase 3A/3B (Q13370 whole entry): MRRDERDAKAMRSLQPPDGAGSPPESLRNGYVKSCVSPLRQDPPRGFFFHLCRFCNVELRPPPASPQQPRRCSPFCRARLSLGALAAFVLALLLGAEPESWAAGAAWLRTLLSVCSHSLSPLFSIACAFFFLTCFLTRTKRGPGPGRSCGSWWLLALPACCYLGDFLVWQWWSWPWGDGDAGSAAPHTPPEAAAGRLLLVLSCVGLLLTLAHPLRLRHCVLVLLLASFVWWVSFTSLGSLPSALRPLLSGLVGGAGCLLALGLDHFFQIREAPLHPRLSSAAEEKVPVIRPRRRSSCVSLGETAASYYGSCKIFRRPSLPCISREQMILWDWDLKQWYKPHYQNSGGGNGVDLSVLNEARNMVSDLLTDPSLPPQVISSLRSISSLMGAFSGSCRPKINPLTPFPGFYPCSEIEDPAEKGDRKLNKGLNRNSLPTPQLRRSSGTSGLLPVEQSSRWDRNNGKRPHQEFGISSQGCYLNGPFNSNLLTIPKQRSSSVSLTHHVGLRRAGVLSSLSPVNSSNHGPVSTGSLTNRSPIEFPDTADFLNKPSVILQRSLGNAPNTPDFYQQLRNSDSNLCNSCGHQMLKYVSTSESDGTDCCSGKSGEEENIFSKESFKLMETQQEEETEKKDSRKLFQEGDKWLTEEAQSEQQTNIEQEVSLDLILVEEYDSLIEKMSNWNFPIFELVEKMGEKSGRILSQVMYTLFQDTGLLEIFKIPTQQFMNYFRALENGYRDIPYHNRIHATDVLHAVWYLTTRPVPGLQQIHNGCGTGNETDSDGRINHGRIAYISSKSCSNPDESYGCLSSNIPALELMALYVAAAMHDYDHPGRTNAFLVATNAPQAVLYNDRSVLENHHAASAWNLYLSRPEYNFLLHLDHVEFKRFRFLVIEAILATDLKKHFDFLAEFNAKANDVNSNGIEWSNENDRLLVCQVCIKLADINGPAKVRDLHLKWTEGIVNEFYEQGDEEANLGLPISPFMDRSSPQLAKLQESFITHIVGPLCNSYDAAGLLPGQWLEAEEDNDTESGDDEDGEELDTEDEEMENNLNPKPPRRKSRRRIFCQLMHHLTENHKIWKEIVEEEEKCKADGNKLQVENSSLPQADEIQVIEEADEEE

| IC50 [µM] | SMILES |
| --- | --- |
| > 100 | COc1cccc(COc2cccc(N3CC(c4ccc(OC)c(OC5CCCC5)c4)CC3=O)c2)c1 (centres undefined) |
| > 100 | COc1cccc(COc2cc(C(=O)NN(C)C)cc(N3CC(c4ccc(OC)c(OC5CCCC5)c4)CC3=O)c2)c1 (centres undefined) |
| > 100 | COc1cccc(COc2cc(C(=O)O)cc(N3CC(c4ccc(OC)c(OC5CCCC5)c4)CC3=O)c2)c1 (centres undefined) |
| > 100 | COc1ccc([C@@H]2CNC(=O)C2)cc1OC1CCCC1 (racemic) [Adeo] |
